Results reported in patent US20230089867A1, “CYCLIC PENTAMER COMPOUNDS AS PROPROTEIN CONVERTASE SUBTILISIN/KEXIN TYPE 9 (PCSK9) INHIBITORS FOR THE TREATMENT OF METABOLIC DISORDER” (Novartis AG, priority 2018, published 2023).

Target: human PCSK9 (Homo sapiens, UniProt Q8NBP7)
Experiment: PCSK9 ligand binding TR-FRET assay (interference with binding of human PCSK9 to human LDLR)
Conditions: for Max % inhibition: PCSK9 FRET assay, efficacy (Amax), 100% = 1 uM unlabeled human PCSK9, 0% = DMSO; for IC50: TR-FRET, human PCSK9 Alexa Fluor 647 / human LDLR extracellular domain-Europium Kryptate, read-out: PCSK9 FRET Assay IC50
In short: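 Threefold compound dilutions were pre-incubated 30 min with PCSK9, after which 4 nM Europium Kryptate-tagged human LDLR ectodomain was added for a further 2 h.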

Chain of human PCSK9 (Q8NBP7 153-692): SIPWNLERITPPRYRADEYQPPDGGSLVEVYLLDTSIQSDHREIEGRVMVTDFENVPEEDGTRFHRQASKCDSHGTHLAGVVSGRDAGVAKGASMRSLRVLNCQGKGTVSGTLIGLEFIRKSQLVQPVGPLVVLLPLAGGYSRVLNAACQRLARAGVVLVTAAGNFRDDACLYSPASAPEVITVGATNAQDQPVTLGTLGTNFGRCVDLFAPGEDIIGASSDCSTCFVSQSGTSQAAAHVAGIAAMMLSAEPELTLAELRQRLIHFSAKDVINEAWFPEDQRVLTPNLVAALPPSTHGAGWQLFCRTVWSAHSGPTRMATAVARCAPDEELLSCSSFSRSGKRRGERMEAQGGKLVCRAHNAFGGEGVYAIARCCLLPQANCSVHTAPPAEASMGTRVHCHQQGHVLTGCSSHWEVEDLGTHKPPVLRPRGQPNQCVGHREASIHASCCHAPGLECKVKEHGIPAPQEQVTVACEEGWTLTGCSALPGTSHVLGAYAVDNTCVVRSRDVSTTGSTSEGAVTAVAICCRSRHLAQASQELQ
Chain of human PCSK9 (Q8NBP7 31-152 partner limits assumed): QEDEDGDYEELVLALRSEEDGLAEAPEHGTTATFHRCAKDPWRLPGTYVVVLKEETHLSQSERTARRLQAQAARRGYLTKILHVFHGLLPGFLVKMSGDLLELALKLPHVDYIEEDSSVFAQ

SMILES	Max % inhibition	IC50
COC[C@@H]1NC(=O)[C@H](CC(=O)OC(C)(C)C)N(Cc2ccc(Cl)cc2Oc2ccc(-c3cnc(CN(C)C)n3C)cc2)C(=O)C[C@@H](Cc2ccccc2)C(=O)N(C)[C@H]2CCCC[C@@H]2NC(=O)C[C@H](Cc2ccc(Cl)cc2)N(C)C1=O [Compound 237, tert-butyl 2-((4S,7S,10S,14R,16aS,20aS)-14-benzyl-11-(4-chloro-2-(4-(2-((dimethylamino)methyl)-1-methyl-1H-imidazol-5-yl)phenoxy)benzyl)-4-(4-chlorobenzyl)-7-(methoxymethyl)-5,16-dimethyl-2,6,9,12,15-pentaoxodocosahydrobenzo[l][1,4,7,11,14]pentaazacyclooctadecin-10-yl)acetate]	102.97%	1.4 nM
COC[C@@H]1NC(=O)[C@@H](C)N(Cc2ccc(C(F)F)cc2Oc2ccc(-c3cnc(CN(C)C)n3C)cc2)C(=O)C[C@@H](Cc2ccccc2)C(=O)N(C)[C@@H](C)CNC(=O)C[C@H](Cc2ccc(Cl)cc2)N(C)C1=O [Compound 74, (2R,5S,8S,13S,16R)-16-benzyl-8-(4-chlorobenzyl)-1-(4-(difluoromethyl)-2-(4-(2-((dimethylamino)methyl)-1-methyl-1H-imidazol-5-yl)phenoxy)benzyl)-5-(methoxymethyl)-2,7,13,14-tetramethyl-1,4,7,11,14-pentaazacyclooctadecane-3,6,10,15,18-pentaone]	104.33%	46.5 nM
COC[C@@H]1NC(=O)[C@H](C)N(Cc2ccc(Cl)cc2Oc2ccc(-c3cnc(CN(C)C)n3C)cc2)C(=O)C[C@@H](Cc2ccc(F)c[n+]2[O-])C(=O)N(C)[C@@H](C)CNC(=O)C[C@H](Cc2ccc(Cl)cc2)N(C)C1=O [Compound 180, 2-(((2S,5S,8S,13S,16R)-1-(4-chloro-2-(4-(2-((dimethylamino)methyl)-1-methyl-1H-imidazol-5-yl)phenoxy)benzyl)-8-(4-chlorobenzyl)-5-(methoxymethyl)-2,7,13,14-tetramethyl-3,6,10,15,18-pentaoxo-1,4,7,11,14-pentaazacyclooctadecan-16-yl)methyl)-5-fluoropyridine 1-oxide]	102.27%	3.1 nM
COC[C@@H]1NC(=O)[C@H](C)N(Cc2ccc(Cl)cc2Oc2ccc(-c3cnc(CN(C)C)n3C)cc2)C(=O)C[C@@H](Cc2ccccc2)C(=O)N(C)[C@@H](CO)CNC(=O)C[C@H](Cc2ccc(Cl)cc2)N(C)C1=O [Compound 235, (2S,5S,8S,13R,16R)-16-benzyl-1-(4-chloro-2-(4-(2-((dimethylamino)methyl)-1-methyl-1H-imidazol-5-yl)phenoxy)benzyl)-8-(4-chlorobenzyl)-13-(hydroxymethyl)-5-(methoxymethyl)-2,7,14-trimethyl-1,4,7,11,14-pentaazacyclooctadecane-3,6,10,15,18-pentaone]	100.56%	11.1 nM
COC[C@@H]1NC(=O)[C@H](C)N(Cc2ccc(Cl)cc2Oc2ccc(-c3cnc(CN(C)C)n3C)cc2)C(=O)C[C@@H](C2CC2)C(=O)N(C)[C@@H](C)CNC(=O)C[C@H](Cc2ccc(Cl)cc2)N(C)C1=O [Compound 215, (2S,5S,8S,13S)-1-(4-chloro-2-(4-(2-((dimethylamino)methyl)-1-methyl-1H-imidazol-5-yl)phenoxy)benzyl)-8-(4-chlorobenzyl)-16-cyclopropyl-5-(methoxymethyl)-2,7,13,14-tetramethyl-1,4,7,11,14-pentaazacyclooctadecane-3,6,10,15,18-pentaone]	95.08%	11 nM
C[C@@H]1C(=O)N[C@@H](CO)C(=O)N(C)[C@@H](Cc2ccc(Cl)cc2)CC(=O)N[C@H]2CCCC[C@@H]2N(C)C(=O)[C@H](Cc2ccccc2)CC(=O)N1Cc1ccc(Cl)cc1Oc1ccc(-c2cnc(CN(C)C)n2C)cc1 [Compound 194, (4S,7S,10R,14R,16aS,20aS)-14-benzyl-11-(4-chloro-2-(4-(2-((dimethylamino)methyl)-1-methyl-1H-imidazol-5-yl)phenoxy)benzyl)-4-(4-chlorobenzyl)-7-(hydroxymethyl)-5,10,16-trimethylhexadecahydrobenzo[l][1,4,7,11,14]pentaazacyclooctadecine-2,6,9,12,15(3H)-pentaone]	96.92%	5.5 nM
COC[C@@H]1NC(=O)[C@H](C)N(Cc2ccc(Cl)cc2Oc2ccc(-c3cnc(CN4CCCC4)n3C)cc2)C(=O)C[C@@H](Cc2ccccc2)C(=O)N(C)[C@@H](CCCCN)CNC(=O)C[C@H](Cc2ccc(Cl)cc2)N(C)C1=O.O=C(O)C(F)(F)F [Compound 169, (2S,5S,8S,13S,16R)-13-(4-aminobutyl)-16-benzyl-1-(4-chloro-2-(4-(1-methyl-2-(pyrrolidin-1-ylmethyl)-1H-imidazol-5-yl)phenoxy)benzyl)-8-(4-chlorobenzyl)-5-(methoxymethyl)-2,7,14-trimethyl-1,4,7,11,14-pentaazacyclooctadecane-3,6,10,15,18-pentaone trifluoroacetate]	91.73%	1.3 nM

Further lines, results first:

Max % inhibition	IC50	SMILES
80.79%	22.9 nM	CCNC(=O)c1ncn(-c2ccc(Oc3cc(Cl)ccc3CN3C(=O)C[C@@H](Cc4ccccc4)C(=O)N(C)[C@@H](C)CNC(=O)C[C@H](Cc4ccc(Cl)cc4)N(C)C(=O)[C@H](COC)NC(=O)[C@@H]3C)cc2)c1C [Compound 244, 1-(4-(2-(((2S,5S,8S,13S,16R)-16-benzyl-8-(4-chlorobenzyl)-5-(methoxymethyl)-2,7,13,14-tetramethyl-3,6,10,15,18-pentaoxo-1,4,7,11,14-pentaazacyclooctadecan-1-yl)methyl)-5-chlorophenoxy)phenyl)-N-ethyl-5-methyl-1H-imidazole-4-carboxamide]
88.80%	0.6 nM	COC[C@@H]1NC(=O)[C@H](CCCN)N(Cc2ccc(Cl)cc2Oc2ccc(-c3cnc(CN(C)C)n3C)cc2)C(=O)C[C@@H](Cc2ccccc2)C(=O)N(C)[C@H]2CCCC[C@@H]2NC(=O)C[C@H](Cc2ccc(Cl)cc2)N(C)C1=O [Compound 304, (4S,7S,10S,14R,16aS,20aS)-10-(3-aminopropyl)-14-benzyl-11-(4-chloro-2-(4-(2-((dimethylamino)methyl)-1-methyl-1H-imidazol-5-yl)phenoxy)benzyl)-4-(4-chlorobenzyl)-7-(methoxymethyl)-5,16-dimethylhexadecahydrobenzo[l][1,4,7,11,14]pentaazacyclooctadecine-2,6,9,12,15(3H)-pentaone]
101.53%	16.4 nM	COC[C@@H]1NC(=O)[C@H](C)N(Cc2ccc(Cl)cc2Oc2ccc(-c3cnc(CN(C)C)n3C)cc2)C(=O)CC(Cn2ccccc2=O)C(=O)N(C)[C@H]2CCCC[C@@H]2NC(=O)C[C@H](Cc2ccc(Cl)cc2)N(C)C1=O (stereo partly drawn) [Compound 276, (4S,7S,10S,16aS,20aS)-11-(4-chloro-2-(4-(2-((dimethylamino)methyl)-1-methyl-1H-imidazol-5-yl)phenoxy)benzyl)-4-(4-chlorobenzyl)-7-(methoxymethyl)-5,10,16-trimethyl-14-((2-oxopyridin-1(2H)-yl)methyl)hexadecahydrobenzo[l][1,4,7,11,14]pentaazacyclooctadecine-2,6,9,12,15(3H)-pentaone]
105.87%	1.6 nM	COC[C@@H]1NC(=O)[C@H](CCCN2CCOCC2)N(Cc2ccc(Cl)cc2Oc2ccc(-c3cnc(CN(C)C)n3C)cc2)C(=O)C[C@@H](Cc2ccccc2)C(=O)N(C)[C@@H](C)[C@H](C)NC(=O)C[C@H](Cc2ccc(Cl)cc2)N(C)C1=O [Compound 283, (2S,5S,8S,12S,13S,16R)-16-benzyl-1-(4-chloro-2-(4-(2-((dimethylamino)methyl)-1-methyl-1H-imidazol-5-yl)phenoxy)benzyl)-8-(4-chlorobenzyl)-5-(methoxymethyl)-7,12,13,14-tetramethyl-2-(3-morpholinopropyl)-1,4,7,11,14-pentaazacyclooctadecane-3,6,10,15,18-pentaone]
103.97%	2.4 nM	COC[C@@H]1NC(=O)[C@H](C)N(Cc2ccc(Cl)cc2Oc2ccc(-c3cnc(CN(C)C)n3C)cc2)C(=O)C[C@@H](Cc2c(F)c(F)cc(F)c2F)C(=O)N(C)[C@@H](C)CNC(=O)C[C@H](Cc2ccc(Cl)cc2)N(C)C1=O [Compound 246, (2S,5S,8S,13S,16R)-1-(4-chloro-2-(4-(2-((dimethylamino)methyl)-1-methyl-1H-imidazol-5-yl)phenoxy)benzyl)-8-(4-chlorobenzyl)-5-(methoxymethyl)-2,7,13,14-tetramethyl-16-(2,3,5,6-tetrafluorobenzyl)-1,4,7,11,14-pentaazacyclooctadecane-3,6,10,15,18-pentaone]
98.50%	0.9 nM	COC[C@@H]1NC(=O)[C@H](C)N(Cc2ccc(Cl)cc2Oc2ccc(-c3cnc(CN(C)C)n3C)cc2)C(=O)C[C@@H](Cc2ccccn2)C(=O)N(C)[C@H]2CCCC[C@@H]2NC(=O)C[C@H](Cc2ccc(Cl)cc2)N(C)C1=O [Compound 284, (4S,7S,10S,14R,16aS,20aS)-11-(4-chloro-2-(4-(2-((dimethylamino)methyl)-1-methyl-1H-imidazol-5-yl)phenoxy)benzyl)-4-(4-chlorobenzyl)-7-(methoxymethyl)-5,10,16-trimethyl-14-(pyridin-2-ylmethyl)hexadecahydrobenzo[l][1,4,7,11,14]pentaazacyclooctadecine-2,6,9,12,15(3H)-pentaone]
98.36%	2.3 nM	COC[C@@H]1NC(=O)[C@H](C)N(Cc2ccc(Cl)cc2Oc2ccc(-c3cnc4n3CC[N+]3(CCCC3)C4)cc2)C(=O)C[C@@H](Cc2ccccc2)C(=O)N(C)[C@@H](C)CNC(=O)C[C@H](Cc2ccc(Cl)cc2)N(C)C1=O.Cl.[Cl-] [Compound 249, 3-(4-(2-(((2S,5S,8S,13S,16R)-16-benzyl-8-(4-chlorobenzyl)-5-(methoxymethyl)-2,7,13,14-tetramethyl-3,6,10,15,18-pentaoxo-1,4,7,11,14-pentaazacyclooctadecan-1-yl)methyl)-5-chlorophenoxy)phenyl)-5,6-dihydro-8H-spiro[imidazo[1,2-a]pyrazine-7,1′-pyrrolidin]-7-ium chloride hydrochloride]
